Assay results from the METLIN SMRT retention time set (Domingo-Almenara et al. 2019).

experiment: gradient 5% acetonitrile 3 min, to 50% in 2 min, to 85% in 15 min, held 3 min, 100 µL/min; details: column: Zorbax Extend-C18 2.1 x 50 mm; eluents: water / acetonitrile, 0.1% formic acid
Procedure, shortened: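 Retention times come from adduct peaks that were picked computationally and then checked by hand. The standards, pure and pooled in mixtures of ~100 molecules, were run on a Zorbax Extend-C18 column (2.1 × 50 mm, 1.8 μm) at 100 μL/min with water and acetonitrile, each with 0.1% formic acid. Detection was by quadrupole time-of-flight mass spectrometry in positive and negative ionization mode, with a dead volume of 40 μL and a dwell volume of 900 μL.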

Compared with `CC(C)CNC(=O)c1nn(C)c2c1COc1ccccc1-2`, `CCn1ccc(C(=O)Nc2nnc(CSc3ccccc3)o2)n1` is higher in RP-LC retention time: 690 s for the first, 712 s for the second.

Going from `Cc1ccc(CNC(=O)C2(C)CCN(S(=O)(=O)c3ccc(Cl)cc3)CC2)cc1` to `Cc1ccccc1CNC(=O)C1(C)CCCN(S(=O)(=O)c2ccccc2)C1` (stereo not drawn), the RP-LC retention time rises from 615 s to 944 s.

Compared with `CCc1ccc(NC(=O)N2CCC(n3cnc4c(Cl)cccc4c3=O)CC2)cc1`, `CCOc1ccc(NC(=O)C2CCN(S(=O)(=O)c3ccc4c(c3)sc(=O)n4C)CC2)cc1` is lower in RP-LC retention time: 890 s for the first, 798 s for the second.

Compared with `COc1ccc(-c2noc(Cn3ccn4nc(-c5ccccc5)cc4c3=O)n2)cc1`, `CCOc1ccc(-c2noc(Cn3ncn4nc(-c5ccc(F)cc5)cc4c3=O)n2)cc1OC` is higher in RP-LC retention time: 1030 s for the first, 1070 s for the second.

Going from `O=C(Nc1nc2c(s1)CN(C(=O)c1cc(-c3ccc(F)cc3)n[nH]1)CC2)c1ccco1` to `CN1CCN(C(c2ccncc2)c2c(NC(=O)c3ccco3)sc3c2CCCC3)CC1` (stereo not drawn), the RP-LC retention time falls from 717 s to 636 s.

Going from `O=C1NCCCn2cc(S(=O)(=O)Nc3ccc4c(c3)OCCO4)cc21` to `CCN1c2ccccc2C(=O)NC12CCN(C(=O)Nc1ccc3c(c1)OCO3)CC2`, the RP-LC retention time rises from 622 s to 737 s.

First: Cc1cc(C)c(C(=O)N2CCC(CC(=O)NCc3ccccc3C)CC2)[nH]1
Second: Cc1ccccc1CNC(=O)CN1CCN(Cc2ccc(F)cc2)C1=O
The RP-LC retention time of the first is lower: 794 s for the first, 803 s for the second.

Going from `O=C(NCc1ccccc1)C1CCCN(S(=O)(=O)c2c[nH]c(C(=O)N3CCCC3)c2)C1` (stereo not drawn) to `O=C(NCc1ccccc1)C1CCCN(c2nnc3ccc(Cl)cn23)C1` (stereo not drawn), the RP-LC retention time falls from 748 s to 739 s.

Compared with `CCC1CN2C=NC(N3CCN(S(=O)(=O)c4cc(Cl)ccc4OC)CC3)=CC2=N1` (stereo not drawn), `CCn1nc2c(S(=O)(=O)N3CCN(c4ccc(F)cc4)CC3)cccn2c1=O` is higher in RP-LC retention time: 705 s for the first, 1250 s for the second.

Compared with `Cc1nc(-c2cn(-c3cccc(F)c3)nn2)no1`, `CCn1nccc1-c1cccc(-c2noc(CNC(=O)c3ccco3)n2)c1` is lower in RP-LC retention time: 805 s for the first, 791 s for the second.

Going from `O=C(NC1CCCCCC1)C1CCCN(C(=O)c2cccc(C(F)(F)F)c2)C1` (stereo not drawn) to `COCCCNC(=O)C1CCCN(C(=O)c2cccc(C(F)(F)F)c2)C1` (stereo not drawn), the RP-LC retention time falls from 948 s to 698 s.

Going from `O=C(Nc1ccc(-c2nnc3n2CCCC3)cc1)c1ccsc1` to `O=C(Nc1cccc(-c2nnc3n2CCCC3)c1)C1CCCC1`, the RP-LC retention time rises from 631 s to 673 s.

Going from `COc1ccccc1-c1cnn2c(C)cc(C)nc12` to `COc1ccccc1-c1cc2nc(C)cc(N3CCN(c4ccccn4)CC3)n2n1`, the RP-LC retention time falls from 862 s to 580 s.

First: O=C(Nc1ccc(Cl)cc1F)c1cccn1Cc1noc(C2CC2)n1
Second: COc1ccc(N2CC(c3nc(-c4ccccc4F)no3)CC2=O)c(OC)c1 (stereo not drawn)
The RP-LC retention time of the first is higher: 1020 s for the first, 863 s for the second.

First: CCCCC(=O)N1CC(F)(F)C[C@H]1c1nnc(-c2cnccn2)o1
Second: CCCC(C)c1nnc(NC(=O)C2CCN(C(=O)c3cccc(F)c3)CC2)s1 (stereo not drawn)
The RP-LC retention time of the first is lower: 715 s for the first, 831 s for the second.

Going from `COc1ccc(C(=O)N2C[C@H](c3nc(-c4ccccc4)no3)[C@@H](C)C2)cc1F` to `COc1cccc(-c2noc(C3CCCN3C(=O)Nc3ccc(OC)c(Cl)c3)n2)c1` (stereo not drawn), the RP-LC retention time falls from 991 s to 974 s.

Compared with `CCN1CCN(CCNC(=O)c2ccc(-c3ccc4c(c3)CCN4C(C)=O)cc2)CC1`, `O=C(c1ccc2c(c1)CCN2C(=O)C1CC1)N1CCN(c2ccccc2)CC1` is higher in RP-LC retention time: 598 s for the first, 829 s for the second.

Compared with `CCOc1ccc(N2C(=O)C3N=NN(Cc4nc(-c5ccc(OC)c(OC)c5)no4)C3C2=O)cc1` (stereo not drawn), `CCOc1ccc(-c2noc(Cn3nc4ccc(-c5ccc(C)cc5)nn4c3=O)n2)cc1OC` is higher in RP-LC retention time: 906 s for the first, 966 s for the second.

First: COc1ccc(NC(=O)Cn2nc(N3CCCC(C)C3)c3ccccc3c2=O)c(OC)c1 (stereo not drawn)
Second: COc1cccc(N2CCN(c3ccnc(SCC(=O)Nc4ccc(F)cc4F)n3)CC2)c1
The RP-LC retention time of the first is higher: 1100 s for the first, 804 s for the second.

Going from `Cc1ccc(C)c(-c2cc3c4nnc(CCC(=O)N5CCC(C(N)=O)CC5)n4ccn3n2)c1` to `Cc1ccc(C)c(N2CCN(C(=O)c3ccc(C)c(NC(=O)C4=CSCCO4)c3)CC2)c1`, the RP-LC retention time rises from 669 s to 1070 s.

Compared with `CCc1ccc(C2=C(C)C(N3CCCN(C(=O)C(C)C)CC3)=NS2(=O)=O)cc1`, `CC(C)n1c(N2CCN(C(=O)c3cc4ccccc4[nH]3)CC2)cc(=O)n(C(C)C)c1=O` is higher in RP-LC retention time: 824 s for the first, 915 s for the second.

Going from `O=C(c1ccc2ccccc2n1)N1CCN(c2cc(-c3cccs3)[nH]n2)CC1` to `CCc1nc2cccnc2n1CCN1CCN(C(=O)Nc2ccc3c(c2)OCO3)CC1`, the RP-LC retention time falls from 752 s to 579 s.

Going from `Cc1nc(-c2cc(S(=O)(=O)NCc3ccc(Br)cc3)c(C)s2)cs1` to `Cc1sc(-c2cc(C(F)(F)F)on2)cc1S(=O)(=O)NCCc1cccs1`, the RP-LC retention time rises from 1030 s to 1140 s.

Going from `CCOc1ccc(-c2cn3ccn(-c4ccc(C(C)C)cc4)c(=O)c3n2)cc1` to `COc1ccc(-n2ccn3cc(-c4ccc(Cl)cc4)nc3c2=O)cc1OC`, the RP-LC retention time falls from 1030 s to 810 s.

Compared with `COCCc1noc(C2CN(C(=O)c3ccoc3)C2)n1`, `Cc1cnc(C2CN(C(=O)c3ccnn3C)C2)n1CC1CC1` is lower in RP-LC retention time: 629 s for the first, 568 s for the second.

First: Cn1cc(CCN2CCC(C(=O)N3CCN(c4ccccc4)CC3)CC2)c2cccnc21
Second: Cn1cc(CCNC(=O)CSc2ccccc2)c2cccnc21
The RP-LC retention time of the first is lower: 617 s for the first, 686 s for the second.

Compared with `CC(=O)Nc1onc(C)c1-c1ccc(C)c(S(=O)(=O)Nc2ccc(F)cc2C)c1`, `CCN1C(=O)c2cc(S(=O)(=O)Nc3cccc(C)c3C)ccc2Oc2cccnc21` is higher in RP-LC retention time: 806 s for the first, 1030 s for the second.

Compared with `CCNC(=O)c1sc2nc(-c3cccc(F)c3)c(NCCCOC)n2c1C`, `CCc1cc(=O)n(CC(=O)Nc2ccc(F)cc2C)c(N2CCOCC2)n1` is lower in RP-LC retention time: 844 s for the first, 760 s for the second.

Going from `Cc1nnc(-c2c(S(=O)(=O)NCc3ccco3)c(C)n(C)c2C)o1` to `Cc1noc(-c2ccc(OC3CN(S(=O)(=O)c4c(C)nn(C)c4C)C3)cc2)n1`, the RP-LC retention time rises from 729 s to 807 s.

First: CCc1cc(-c2csc(S(=O)(=O)NCCCc3ccccc3)c2)on1
Second: NS(=O)(=O)c1ccc(CCNC(=O)Cc2cc(-c3cc4ccccc4o3)on2)cc1
The RP-LC retention time of the first is higher: 1060 s for the first, 736 s for the second.

First: CCCNc1cc(N2CCC(CCC(=O)NCCN3CCc4ccccc4C3)CC2)ncn1
Second: Cc1ccc(C(=O)NC2CCN(c3cc(N4CCCC4)cnn3)C2)s1 (stereo not drawn)
The RP-LC retention time of the first is lower: 574 s for the first, 649 s for the second.

Going from `CCOc1ccc(NC(=O)c2cnc(N3CCSCC3)nc2N)cc1` to `Cc1sc2nc(SCC(=O)Nc3ccc(S(N)(=O)=O)cc3)nc(N)c2c1C`, the RP-LC retention time falls from 712 s to 682 s.

Compared with `CC1CCN(CCNC(=O)c2nnc(-c3ccc(S(=O)(=O)N(C)C)cc3)o2)CC1`, `Cc1ccc(-c2ccc(N3CCCC(C(=O)NCC4CCCO4)C3)nn2)cc1C` (stereo not drawn) is higher in RP-LC retention time: 606 s for the first, 663 s for the second.

Compared with `O=C(CCc1c(-c2ccc(Br)cc2)nc2ccccn12)NC1CCCCC1`, `Cc1ccc(-c2ncc(C(=O)NCC3CCCCC3)c(-c3ccncc3)n2)cc1` is higher in RP-LC retention time: 702 s for the first, 992 s for the second.

First: CC(C)CC(=O)Nc1ccc(-n2cnc(C(=O)NC3CC3)c2)nc1
Second: COc1cccc(OCC2c3ccsc3CCN2C(=O)CN(C(C)=O)C(C)C)c1 (stereo not drawn)
The RP-LC retention time of the first is lower: 668 s for the first, 808 s for the second.

Going from `O=C(NCC(F)(F)F)c1ccc(=O)[nH]c1` to `O=C(Nc1cccnc1)c1cccc([N+](=O)[O-])c1`, the RP-LC retention time rises from 534 s to 661 s.

First: O=C(NCC(c1cccnc1)N1CCc2ccccc21)C(=O)Nc1ccc2c(c1)OCCO2 (stereo not drawn)
Second: CC(NC(=O)C1CCN(C(=O)c2ncn3c2COC(c2ccccc2)C3)CC1)c1ccc(F)cc1 (stereo not drawn)
The RP-LC retention time of the first is lower: 730 s for the first, 848 s for the second.

Going from `CCC1Oc2ccc(S(=O)(=O)N3CCC(C(=O)Nc4ccc(Cl)cc4)CC3)cc2NC1=O` (stereo not drawn) to `O=C(CN1C(=O)CCCc2cc(S(=O)(=O)N3CCCCC3)ccc21)Nc1ccc(Cl)cc1`, the RP-LC retention time rises from 950 s to 990 s.

Compared with `N#Cc1cnc2ccc(Cl)cc2c1N1CCC(C(=O)Nc2cccc(C(F)(F)F)c2)CC1`, `Cc1ccc(-n2ccn3cc(-c4ccc(F)cc4F)nc3c2=O)cc1Cl` is lower in RP-LC retention time: 1120 s for the first, 1000 s for the second.

Compared with `CCCc1noc(-c2nc(-c3ccc(OC)c(OC)c3)no2)n1`, `COc1cccc(-c2noc(-c3nc(-c4ccc5c(c4)OCO5)no3)n2)c1OC` is higher in RP-LC retention time: 1050 s for the first, 1150 s for the second.

Going from `CCNC(=O)N1CCCC1c1cc(C)no1` (stereo not drawn) to `Cc1oc(-c2[nH]ncc2C(=O)N2CCCC2)cc1S(=O)(=O)NCCC(C)C`, the RP-LC retention time rises from 615 s to 736 s.

Compared with `CC(C)N(Cc1ccccc1)C(=O)CN1C(=O)CCc2cc(S(=O)(=O)N3CCCCC3C)ccc21` (stereo not drawn), `Cc1ccc(Cl)cc1N1C(=O)CN(S(C)(=O)=O)CC1(C)C(=O)NCc1ccccc1` (stereo not drawn) is lower in RP-LC retention time: 1060 s for the first, 854 s for the second.

Compared with `Cc1ccccc1-c1noc(Cn2c(=O)n(Cc3ccccc3Cl)c(=O)c3sccc32)n1`, `COC(=O)Cn1c(C2CC(=O)N(Cc3ccccc3)C2)nc2ccccc21` (stereo not drawn) is lower in RP-LC retention time: 1200 s for the first, 770 s for the second.

Going from `CSc1ncc2ncn(C3OC(CO)C(O)C3O)c2n1` (stereo not drawn) to `CC(C)OC(=O)Cn1nc2c(-c3nc(-c4ccc(Cl)cc4)no3)cccn2c1=O`, the RP-LC retention time rises from 623 s to 1040 s.
